Assay results taken from ChEMBL document CHEMBL1155619, “Kurstakins: a new class of lipopeptides isolated from Bacillus thuringiensis” (2000).
Active and inactive are the calls of the source. No cut-off for these calls is given here. Starred links: 1 amine or outer side, 2 acyl side, 3 side chain; linkers in the order of their positions; H or OH if unused. Positions of bridges follow the written chain, without caps; N, C: chain ends. Non-standard residues stand in square brackets, D forms with d. Residues, ends and D or L forms follow the SMILES beside them. X1 = CC(C)CCCCCCCCC[C@H](CC(=O)[*:1])O[*:2]

System: Stachybotrys chartarum
Test: Antifungal activity against Stachybotrys charatum assessed as zone of inhibition at 80 ug after 24 hrs
Assay type: functional

CC(C)CCCCCCCCC[C@@H]1CC(=O)N[C@@H](CCC(=O)O)C(=O)N[C@@H](CC(C)C)C(=O)N[C@H](CC(C)C)C(=O)N[C@@H](C(C)C)C(=O)N[C@@H](CC(=O)O)C(=O)N[C@H](CC(C)C)C(=O)N[C@@H](CC(C)C)C(=O)O1 (EL[dL]VD[dL]L; linker N-C via X1) was tested, and the Activity was “inactive”.
